Assay results reported in paper PMC6149849, “Cymantrenyl-Nucleobases: Synthesis, Anticancer, Antitrypanosomal and Antimicrobial Activity Studies” (Molecules : A Journal of Synthetic Chemistry and Natural …, 2017).

Columns and labels:
[1] = system: Gram-positive bacterial strains, including MRSA and VISA pathogens; assay: Antibacterial activity over the panel of strains (summary statements); format: cell-based; conditions: for antibacterial activity in words: reference bacterial strains; for antibacterial activity (range over strains): summary range
Description: Organometallic compounds play an increasingly important role in the search for new antibacterial agents. We, therefore, thought to investigate also the bactericidal activity of the newly synthesized cymantrenes 1–7, compound C and CymH. The antibacterial activity of the compounds was tested against Gram-positive methicillin-sensitive Staphylococcus aureus (MSSA), methicillin-resistant S. aureus (MRSA), vancomycin-intermediate S. aureus (VISA), S. epidermidis, and Gram-negative Escherichia coli bacterial strains, and expressed as minimal inhibitory concentration (MIC) values (Table 3).
(§1) The antibacterial activity of CymH, 1–7 and C and the reference drugs penicillin G and polymyxin B was tested by the liquid microdilution method under standard conditions using twofold dilution series, as described in the Clinical and Laboratory Standards Institute (CLSI), reference method M07-A8, and expressed as minimal inhibitory concentration (MIC) values. A panel of Gram-positive bacterial strains, S. aureus ATCC® 29213 (sensitive to methicillin, (MSSA)), S. aureus ATCC® 43300 (resistant to methicillin, (MRSA)), S. aureus ATCC 700787™ (intermediate to vancomycin, (VISA)), and S. epidermidis ATCC 12228™, and one Gram-negative, strain E. coli ATCC BAA-198™ (ESBL) were used. In addition, four clinical isolates of S. aureus (MSSA and MRSA) and two clinical isolates of S. epidermidis that were collected from different patients at the Medical University of Warsaw, Poland, were also tested. The bacterial cells were cultivated on tryptic soy agar (TSA) and nutrient agar (NA), according to ATCC recommendations. All of the strains were incubated at 37 °C. Tested compounds were dissolved in DMSO and then serially diluted twofold with cation-adjusted Mueller-Hinton broth (CAMHB). Then, 95 µL of the dilutions were dispensed into microdilution sterile plates (Mar-Four), followed by the addition of 5 µL of bacteria inoculum containing 5 × 10^4 CFU/mL. The final concentrations of the compounds ranged from 512 to 2 µg/mL. Each compound was tested in triplicate, and Penicillin G (8–0.15 µg/mL) and Polymyxin B (256–0.0625 µg/mL) were used as controls. The plates were incubated at 37 °C for 18 to 24 h depending on the bacterial strain. Thereafter, the absorbance was measured at λ = 540 nm and λ = 595 nm using a Spectrostar Omega microplate reader (BMG Labtech, Offenburg, Germany). The MIC value was defined as the lowest concentration of a compound that reduced the growth by 100%.

S. aureus ATCC 25923 = assay: Effect on bacterial morphology (SEM) with MIC and MBC; format: cell-based, Staphylococcus aureus
Description: In order to elucidate the bactericidal mechanism of action of cymantrenes, the effect of compound 1 on the morphology of S. aureus ATCC 25923 was exemplary studied by scanning electron microscopy (SEM) (Figure 9).
The effect of compound 1 on bacterial morphology was studied by SEM, as previously described. Briefly, samples of S. aureus ATCC 25923 (10^5 CFU/mL) were centrifuged (600× g, 5 min) and resuspended in growth medium containing compound 1 at concentration of 48 or 64 µg/mL. After incubation for 24 h at 37 °C, the cells were washed twice with PBS (0.1 × PBS), fixed with 2.5% glutaraldehyde (overnight), filtered (0.2 μm, pore size cutoff), and subsequently dehydrated in a series of ethanol washes (30%, 50%, 70%, 80%, 90% and 100%; twice for 15 min). The solvent was then evaporated and the samples were coated with a thin layer of platinum (15 nm). SEM images were recorded using a SEM Inspect F50 (FEI Co., Eindhoven, The Netherlands) at an energy range of 10–15 keV.

[2] = system: Clinical S. epidermidis (MSSA) 37/12; assay: Antibacterial liquid microdilution, clinical isolate; format: cell-based, Staphylococcus epidermidis
Description: (§2) This lack of activity against E. coli can be probably explained by an impeded cellular uptake of the compounds through the Gram-negative cell wall that consists of two layers and effective protein efflux pump systems. The antibacterial activities of 1 and C were further tested against four clinical isolates of S. aureus and two clinical isolates of S. epidermidis (Table 4).
as §1

[3] = system: Clinical S. epidermidis (MSSA) 43/12; assay: as above; format: cell-based, Staphylococcus epidermidis
Description: as §2, §1

[4] = system: Clinical S. aureus (MRSA) 31/12; assay: as above; format: cell-based, Staphylococcus aureus
Description: as §2, §1

[5] = system: Clinical S. aureus (MSSA) 26/11; assay: as above; format: cell-based, Staphylococcus aureus
Description: as §2, §1

[6] = system: Clinical S. aureus (MSSA) 30/11; assay: as above; format: cell-based, Staphylococcus aureus
Description: as §2, §1

[7] = system: Clinical S. aureus (MRSA) 44/12; assay: as above; format: cell-based, Staphylococcus aureus
Description: as §2, §1

[8] = system: human myeloid leukemia HL-60 cells; conditions: cited from earlier work
[9] = system: bloodstream forms of T. brucei clone 427-221a; conditions: cited from earlier work

CCC(=O)[C]12[CH]3[CH]4[CH]5[CH]1[Mn]4532.[C-]#[O+].[C-]#[O+].[C-]#[O+] (stereo not shown) [Compound 7, propionylocymantrene]
antibacterial activity in words [1]: not active

O=C(CCn1cc(F)c(=O)[nH]c1=O)[C]12[CH]3[CH]4[CH]5[CH]1[Mn]4532.[C-]#[O+].[C-]#[O+].[C-]#[O+] (stereo not shown) [Compound 1]
MIC, S. aureus ATCC 25923 (S. aureus ATCC 25923): 32 µg/mL
minimal bactericidal concentration; MBC, S. aureus ATCC 25923 (S. aureus ATCC 25923): 128 µg/mL
bacterial morphology by SEM (S. aureus ATCC 25923; 48 µg/mL and 64 µg/mL, 24 h): severe morphological alterations in cell dimensions and structure, as well as the disruption of the outer envelope
MIC, Clinical S. epidermidis (MSSA) 37/12 [2]: 4 µg/mL
MIC, Clinical S. epidermidis (MSSA) 43/12 [3]: 8 µg/mL
MIC, Clinical S. aureus (MRSA) 31/12 [4]: 64 µg/mL
MIC, Clinical S. aureus (MSSA) 26/11 [5]: 32 µg/mL
MIC, Clinical S. aureus (MSSA) 30/11 [6]: 64 µg/mL
MIC, Clinical S. aureus (MRSA) 44/12 [7]: 32 µg/mL
antibacterial activity in words [1]: remarkable potency against all of the Gram-positive bacterial strains
antibacterial activity (range over strains) [1]: 8 to 64 µg/mL

Nc1ncnc2c1ncn2CCC(O)[C]12[CH]3[CH]4[CH]5[CH]1[Mn]45321[P](c2ccccc2)(c2ccccc2)CC[P]1(c1ccccc1)c1ccccc1.[C-]#[O+] (racemic) [Compound C]
GI50 [8]: 21.8 ± 8.6 µM
HL-60 MIC [8]: 100 µM
MIC and GI50 ratios of cytotoxic to trypanocidal activities ([9]; HL-60 / T. brucei): 7–13
Selectivity GI50 Ratio ([9]; HL-60 / T. brucei): 13.1
Selectivity MIC Ratio ([9]; HL-60 / T. brucei): 10
GI50 [9]: 1.67 ± 0.37 µM
T. brucei MIC [9]: 10 µM
MIC, Clinical S. epidermidis (MSSA) 37/12 [2]: 16 µg/mL
MIC, Clinical S. epidermidis (MSSA) 43/12 [3]: 16 µg/mL
MIC, Clinical S. aureus (MRSA) 31/12 [4]: 32 µg/mL
MIC, Clinical S. aureus (MSSA) 26/11 [5]: 32 µg/mL
MIC, Clinical S. aureus (MSSA) 30/11 [6]: 32 µg/mL
MIC, Clinical S. aureus (MRSA) 44/12 [7]: 32 µg/mL
antibacterial activity in words [1]: remarkable potency against all of the Gram-positive bacterial strains
antibacterial activity (range over strains) [1]: 8 to 64 µg/mL

O=[C]=[Mn](=[C]=O)(=[C]=O)[CH]1C=CC=C1 [CymH, tricarbonyl(η^5-cyclopentadienyl)manganese, reference compound]
antibacterial activity in words [1]: not active
